The source of these data is a compilation of properties of binary mixtures (doi:10.1007/s10953-015-0327-z).

A short description of this series: xn = mol fraction of the nth substance listed. The settings on record: 298.15 K, 101 kPa.

In general, speed of sound refers to how fast a sound wave travels through the sample. Turning to `CC[n+]1ccn(C)c1.N#C[S-]` + O, the speed of sound is, setting by setting: (x2 = 0.153) 1848.1 m/s; (x2 = 0.204) 1847.8 m/s.
In the case of `CCCC[N+]1(C)CCCC1.O=S(=O)([N-]S(=O)(=O)C(F)(F)F)C(F)(F)F` + O, the speed of sound was 1267.8 m/s (x2 = 0.0092); 1267.7 m/s (x2 = 0.0139); 1267.8 m/s (x2 = 0.0228); 1268.3 m/s (x2 = 0.0467); 1273.9 m/s (x2 = 0.2014).
Consider `CCCC[n+]1ccn(C)c1.O=S(=O)([N-]S(=O)(=O)C(F)(F)F)C(F)(F)F` + O, for which the speed of sound was 1226.2 m/s (x2 = 0.012), 1228.4 m/s (x2 = 0.1166) and 1230.3 m/s (x2 = 0.1843).
Take `CCCn1cc[n+](C)c1.O=S(=O)([N-]S(=O)(=O)C(F)(F)F)C(F)(F)F` + O: the speed of sound reads like this: (x2 = 0.0016) 1230.2 m/s; (x2 = 0.0556) 1231.7 m/s; (x2 = 0.2358) 1236 m/s.
